Data taken from US20260297060A1, “COMPOUNDS FOR THE DEGRADATION OF MUTANT BRAF” (C4 THERAPEUTICS, INC., priority 2023, published 2026).
Like-named read-outs stand apart in the source and are kept apart here.

Molecular target: T1, BRAF V600E (Homo sapiens, UniProt P15056+Q96SW2, V600E)
T1 construct: knock-in of the HiBiT tag to the endogenous BRAF V600E locus; host or cells: A375.10 (A375 clonal line, CRISPR HiBiT knock-in at the endogenous BRAF V600E locus)
Assay: BRAF V600E HiBiT Degradation Assay
Type: cell-based
How it was run: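 Endogenous HiBiT knock-in on BRAF V600E in A375 cells (clone A375.10); 11-point half-log series, top 10 μM, 2, 6 or 24 h at 37° C. Lytic HiBiT luminescence, background-subtracted, normalized to DMSO; 4-parameter fit gives DC50, Emax (residual protein) and IP (inflection point).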

[1] = A375.10 cells, BRAF V600E, 2 hours, inflection point, read-out: HiBiT-Degradation A375.10 BRAF 2 hours IP
[2] = A375.10 cells, BRAF V600E, 2 hours, read-out: HiBiT-Degradation A375.10 BRAF 2 hours DC50
[3] = A375.10 cells, BRAF V600E, 2 hours, residual protein remaining, read-out: HiBiT-Degradation A375.10 BRAF 2 hours Emax
[4] = A375.10 cells, BRAF V600E, 6 hours, inflection point, read-out: HiBiT-Degradation A375.10 BRAF 6 hours IP
[5] = A375.10 cells, BRAF V600E, 6 hours, read-out: HiBiT-Degradation A375.10 BRAF 6 hours DC50
[6] = A375.10 cells, BRAF V600E, 6 hours, residual protein remaining, read-out: HiBiT-Degradation A375.10 BRAF 6 hours Emax
[7] = A375.10 cells, HiBiT, BRAF V600E, 24 hours, read-out: HiBiT-Degradation A375.10 BRAF 24 hours DC50
[8] = A375.10 cells, HiBiT, BRAF V600E, 24 hours, read-out: HiBiT-Degradation A375.10 BRAF 24 hours Emax
[9] = A375.10 cells, HiBiT, BRAF V600E, 24 hours, read-out: HiBiT-Degradation A375.10 BRAF 24 hours IP
[10] = read-out: HiBiT-Degradation A375.10 BRAF 2 hours Emax, A375.10 cells, BRAF V600E, 2 hours, residual protein remaining
[11] = A375.10 cells, HiBiT, BRAF V600E, 24 hours

T1 sequence (P15056 whole entry V600E): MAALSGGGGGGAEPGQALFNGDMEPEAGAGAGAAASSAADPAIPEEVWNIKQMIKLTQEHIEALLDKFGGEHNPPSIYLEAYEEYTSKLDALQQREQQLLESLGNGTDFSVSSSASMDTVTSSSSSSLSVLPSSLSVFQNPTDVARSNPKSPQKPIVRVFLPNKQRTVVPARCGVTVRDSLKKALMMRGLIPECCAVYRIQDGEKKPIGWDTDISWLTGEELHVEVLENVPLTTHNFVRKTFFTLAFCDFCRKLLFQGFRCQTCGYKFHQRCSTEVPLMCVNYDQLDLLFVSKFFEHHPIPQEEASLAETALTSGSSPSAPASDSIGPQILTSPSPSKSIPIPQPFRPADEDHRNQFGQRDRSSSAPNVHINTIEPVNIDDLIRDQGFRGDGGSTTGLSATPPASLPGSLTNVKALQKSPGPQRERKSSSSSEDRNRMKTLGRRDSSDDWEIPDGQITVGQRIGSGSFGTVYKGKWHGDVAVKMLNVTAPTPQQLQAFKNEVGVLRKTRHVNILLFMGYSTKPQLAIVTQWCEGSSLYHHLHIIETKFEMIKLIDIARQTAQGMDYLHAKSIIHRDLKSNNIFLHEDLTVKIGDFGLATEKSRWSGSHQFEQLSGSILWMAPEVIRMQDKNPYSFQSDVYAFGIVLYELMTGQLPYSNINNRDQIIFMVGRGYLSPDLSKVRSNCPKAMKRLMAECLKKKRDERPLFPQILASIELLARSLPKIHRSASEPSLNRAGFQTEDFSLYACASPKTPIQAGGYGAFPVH
T1 sequence (Q96SW2 whole entry): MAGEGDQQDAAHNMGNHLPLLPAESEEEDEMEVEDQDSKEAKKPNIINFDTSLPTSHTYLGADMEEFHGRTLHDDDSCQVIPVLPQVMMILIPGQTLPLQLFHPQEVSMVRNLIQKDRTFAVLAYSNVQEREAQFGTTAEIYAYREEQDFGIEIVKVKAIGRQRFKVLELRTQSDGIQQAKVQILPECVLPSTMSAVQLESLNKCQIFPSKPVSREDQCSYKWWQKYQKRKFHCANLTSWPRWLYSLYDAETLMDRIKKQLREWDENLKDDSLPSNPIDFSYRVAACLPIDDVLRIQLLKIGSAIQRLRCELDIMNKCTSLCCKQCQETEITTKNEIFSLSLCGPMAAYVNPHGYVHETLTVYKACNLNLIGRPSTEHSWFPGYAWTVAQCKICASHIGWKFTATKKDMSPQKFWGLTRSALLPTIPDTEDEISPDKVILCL
T1 sequence (Q16531 whole entry partner): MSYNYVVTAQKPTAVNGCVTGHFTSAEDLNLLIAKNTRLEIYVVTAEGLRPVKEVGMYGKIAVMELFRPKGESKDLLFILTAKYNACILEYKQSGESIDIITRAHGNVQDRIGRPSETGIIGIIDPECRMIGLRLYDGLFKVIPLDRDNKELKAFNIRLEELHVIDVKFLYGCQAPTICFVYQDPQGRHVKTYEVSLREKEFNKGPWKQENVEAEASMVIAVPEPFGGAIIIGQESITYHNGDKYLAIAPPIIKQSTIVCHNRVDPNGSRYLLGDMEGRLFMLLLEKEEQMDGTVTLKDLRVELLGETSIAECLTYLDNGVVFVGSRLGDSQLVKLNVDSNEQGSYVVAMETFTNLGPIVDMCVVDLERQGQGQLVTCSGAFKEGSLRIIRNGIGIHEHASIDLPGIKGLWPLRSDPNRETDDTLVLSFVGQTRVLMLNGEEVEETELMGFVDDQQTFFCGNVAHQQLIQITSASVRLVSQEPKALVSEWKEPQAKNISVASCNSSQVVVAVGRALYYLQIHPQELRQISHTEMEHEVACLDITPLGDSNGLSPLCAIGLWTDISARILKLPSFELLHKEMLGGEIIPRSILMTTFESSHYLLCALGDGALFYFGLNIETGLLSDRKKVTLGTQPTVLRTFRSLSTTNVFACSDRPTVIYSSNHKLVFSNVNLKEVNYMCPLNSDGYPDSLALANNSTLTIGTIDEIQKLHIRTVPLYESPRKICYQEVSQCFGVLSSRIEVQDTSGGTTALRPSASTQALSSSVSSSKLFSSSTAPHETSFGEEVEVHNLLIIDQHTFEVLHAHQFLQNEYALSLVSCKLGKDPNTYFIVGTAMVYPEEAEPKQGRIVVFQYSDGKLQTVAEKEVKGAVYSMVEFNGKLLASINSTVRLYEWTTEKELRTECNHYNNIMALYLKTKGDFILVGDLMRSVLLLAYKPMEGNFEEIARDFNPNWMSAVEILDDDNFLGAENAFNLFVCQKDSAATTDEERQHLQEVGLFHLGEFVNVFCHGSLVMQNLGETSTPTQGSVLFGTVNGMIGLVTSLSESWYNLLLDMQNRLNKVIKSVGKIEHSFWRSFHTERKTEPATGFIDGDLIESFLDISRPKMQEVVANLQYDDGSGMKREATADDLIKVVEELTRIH

Compound	DC50 [1] [nM]	DC50 [2] [nM]	Emax [3] [%]	DC50 [4] [nM]	DC50 [5] [nM]	Emax [6] [%]	DC50 [7] [nM]	Emax [8] [%]	DC50 [9] [nM]	Emax [10] [%]	HiBiT-Degradation A375.10 BRAF 2 hours Emax	DC50 (read-out: HiBiT-Degradation A375.10 BRAF 2 hours DC50, A375.10 cells, BRAF V600E, 2 hours) [nM]	DC50 (read-out: HiBiT-Degradation A375.10 BRAF 2 hours IP, A375.10 cells, BRAF V600E, 2 hours, inflection point) [nM]	HiBiT-Degradation A375.10 BRAF 6 hours Emax (A375.10 cells, BRAF V600E, 6 hours, residual protein remaining)	HiBiT-Degradation A375.10 BRAF 24 hours Emax [11]
Cn1nc(N2CCC(=O)NC2=O)c2cc(F)c(C3CCC(N4CCC5(CC4)C[C@@H](n4cnc6ccc(Oc7c(F)ccc(NS(=O)(=O)C8CCCC8)c7C#N)cc6c4=O)CO5)CC3)cc21 (single isomer, unassigned) [Compound 113]	< 1000	< 1000	< 50	< 1000	< 1000	< 50	< 1000	< 50	< 1000	–	–	–	–	–	–
CCN(C)S(=O)(=O)Nc1ccc(F)c(Oc2ccc3ncn(C4CC5(CCN(C6CCC(c7cc8c(cc7F)c(N7CCC(=O)NC7=O)nn8C)CC6F)CC5)C4)c(=O)c3c2)c1F (single isomer, unassigned) [Compound 184]	< 1000	< 1000	< 50	< 1000	< 1000	< 50	< 1000	< 50	< 1000	–	–	–	–	–	–
Cn1nc(N2CCC(=O)NC2=O)c2cc(F)c(N3CC4(CC(N5CCC6(CC5)CC(n5cnc7ccc(Oc8c(F)ccc(NS(=O)(=O)N9C[C@H]%10C[C@H]%10C9)c8C#N)cc7c5=O)C6)C4)C3)cc21 (stereo partly drawn) [Compound 277, (1R,5S)-N-[2-cyano-3-[3-[7-[2-[3-(2,4-dioxohexahydropyrimidin-1-yl)-5-fluoro-1-methyl-indazol-6-yl]-2-azaspiro[3.3]heptan-6-yl]-7-azaspiro[3.5]nonan-2-yl]-4-oxo-quinazolin-6-yl]oxy-4-fluoro-phenyl]-3-azabicyclo[3.1.0]hexane-3-sulfonamide]	< 1000	< 1000	–	–	–	–	–	–	–	< 50	–	–	–	–	–
CCN(C)S(=O)(=O)Nc1ccc(F)c(Oc2ccc3ncn(C4CC5(CCN(C6CCC(c7cc8c(cc7F)c(N7CCC(=O)NC7=O)nn8C)CC6F)CC5)C4)c(=O)c3c2)c1C#N (single isomer, unassigned) [Compound 86]	< 1000	< 1000	–	–	–	–	–	–	–	–	*** (<=50%)	–	–	–	–
Cn1nc(N2CCC(=O)NC2=O)c2cc(F)c(N3CC4(CC(N5CCC6(CC5)CC(n5cnc7ccc(Oc8c(F)ccc(NS(=O)(=O)C9CC9)c8C#N)cc7c5=O)C6)C4)C3)cc21 [Compound 260, N-[2-cyano-3-[3-[7-[2-[3-(2,4-dioxohexahydropyrimidin-1-yl)-5-fluoro-1-methyl-indazol-6-yl]-2-azaspiro[3.3]heptan-6-yl]-7-azaspiro[3.5]nonan-2-yl]-4-oxo-quinazolin-6-yl]oxy-4-fluoro-phenyl]cyclopropanesulfonamide]	–	–	–	–	–	–	–	–	–	< 50	–	< 1000	< 1000	–	–
CCN(C)S(=O)(=O)Nc1ccc(F)c(Oc2ccc3ncn(C4CC5(CCN(C6CCC(c7cc8c(cc7F)c(N7CCC(=O)NC7=O)nn8C)CC6)CC5)C4)c(=O)c3c2)c1C#N (single isomer, unassigned) [Compound 8, 6-[2-cyano-3-[[ethyl(methyl)sulfamoyl]amino]-6-fluoro-phenoxy]-3-[7-[4-[3-(2,4-dioxohexahydropyrimidin-1-yl)-5-fluoro-1-methyl-indazol-6-yl]cyclohexyl]-7-azaspiro[3.5]nonan-2-yl]-4-oxo-quinazoline]	< 1000	< 1000	< 50	< 1000	< 1000	–	< 1000	–	< 1000	–	–	–	–	*** (<=50%)	*** (<=50%)
CCN(C)S(=O)(=O)Nc1ccc(F)c(Oc2ccc3ncn([C@H]4COC5(CCN(C6CC7(C6)CN(c6ccc(NC8CCC(=O)NC8=O)cc6F)C7)CC5)C4)c(=O)c3c2)c1C#N (stereo partly drawn) [Compound 35, (3R)-3-[6-[2-cyano-3-[[ethyl(methyl)sulfamoyl]amino]-6-fluoro-phenoxy]-4-oxo-quinazolin-3-yl]-8-[2-[4-[(2,6-dioxo-3-piperidyl)amino]-2-fluoro-phenyl]-2-azaspiro[3.3]heptan-6-yl]-1-oxa-8-azaspiro[4.5]decane]	< 1000	< 1000	< 50	< 1000	< 1000	< 50	< 1000	< 50	< 1000	–	–	–	–	–	–
CCN(C)S(=O)(=O)Nc1ccc(F)c(Oc2ccc3ncn([C@H]4COC5(CCN(C6CCC(c7ccc(NC8CCC(=O)NC8=O)cc7F)CC6)CC5)C4)c(=O)c3c2F)c1C#N (single isomer, unassigned) [Compound 50]	< 1000	< 1000	< 50	< 1000	< 1000	< 50	< 1000	< 50	< 1000	–	–	–	–	–	–
CCN(C)S(=O)(=O)Nc1ccc(F)c(Oc2ccc3ncn(C4CC5(CCN(C6CCC(c7cc8c(cc7F)c(N7CCC(=O)NC7=O)nn8C)CC6F)CC5)C4)c(=O)c3c2)c1C#N (single isomer, unassigned) [Compound 83, 6-[2-cyano-3-[[ethyl(methyl)sulfamoyl]amino]-6-fluoro-phenoxy]-3-[7-[4-[3-(2,4-dioxohexahydropyrimidin-1-yl)-5-fluoro-1-methyl-indazol-6-yl]-2-fluoro-cyclohexyl]-7-azaspiro[3.5]nonan-2-yl]-4-oxo-quinazoline]	< 1000	< 1000	–	< 1000	< 1000	< 50	< 1000	< 50	< 1000	< 50	–	–	–	–	–
CCN(C)S(=O)(=O)Nc1ccc(F)c(Nc2ccc3ncn([C@H]4COC5(CCN(C6CCC(c7cc8c(cc7F)c(N7CCC(=O)NC7=O)nn8C)CC6)CC5)C4)c(=O)c3c2F)c1C#N (single isomer, unassigned) [Compound 67]	< 1000	< 1000	< 50	< 1000	< 1000	< 50	< 1000	< 50	< 1000	–	–	–	–	–	–
CCN(C)S(=O)(=O)Nc1ccc(F)c(Oc2ccc3ncc([C@@H]4COC5(CCN(C6CCC(c7ccc(NC8CCC(=O)NC8=O)cc7F)CC6)CC5)C4)nc3c2)c1C#N (single isomer, unassigned) [Compound 60]	< 1000	< 1000	–	< 1000	< 1000	< 50	< 1000	< 50	< 1000	< 50	–	–	–	–	–
CCN(C)S(=O)(=O)Nc1ccc(F)c(Nc2ccc3ncn([C@H]4COC5(CCN(C6CCC(c7cc8c(cc7F)c(N7CCC(=O)NC7=O)nn8C)CC6)CC5)C4)c(=O)c3c2)c1C#N (single isomer, unassigned) [Compound 64]	< 1000	< 1000	< 50	< 1000	< 1000	< 50	< 1000	< 50	< 1000	–	–	–	–	–	–
CCN(C)S(=O)(=O)Nc1ccc(F)c(Oc2ccc3ncc(C4CC5(CCN(C6CC7(C6)CN(c6cc8c(cc6F)c(N6CCC(=O)NC6=O)nn8C)C7)CC5)C4)nc3c2)c1C#N (stereo not drawn) [Compound 177, 7-[2-cyano-3-[[ethyl(methyl)sulfamoyl]amino]-6-fluoro-phenoxy]-2-[7-[2-[3-(2,4-dioxohexahydropyrimidin-1-yl)-5-fluoro-1-methyl-indazol-6-yl]-2-azaspiro[3.3]heptan-6-yl]-7-azaspiro[3.5]nonan-2-yl]quinoxaline]	< 1000	< 1000	–	< 1000	< 1000	< 50	< 1000	< 50	< 1000	< 50	–	–	–	–	–
CCN(C)S(=O)(=O)Nc1ccc(F)c(Oc2ccc3ncn(C4CC5(C4)CN(C4CCC(c6cc7c(cc6F)c(N6CCC(=O)NC6=O)nn7C)CC4)C5)c(=O)c3c2)c1C#N (single isomer, unassigned) [Compound 204, 6-[2-cyano-3-[[ethyl(methyl)sulfamoyl]amino]-6-fluoro-phenoxy]-3-[2-[4-[3-(2,4-dioxohexahydropyrimidin-1-yl)-5-fluoro-1-methyl-indazol-6-yl]cyclohexyl]-2-azaspiro[3.3]heptan-6-yl]-4-oxo-quinazoline]	< 1000	< 1000	–	–	–	–	< 1000	–	< 1000	–	*** (<=50%)	–	–	–	*** (<=50%)
